Results as given in US11603475B2, “Antifouling article” (I-Tech AB, priority 2017, dated 2023).

What was measured:
[1] = system: tube worms; conditions: in vivo; cited from earlier work
[2] = system: algal growth; conditions: in vivo; cited from earlier work
[3] = system: barnacle cyprid larva; conditions: barnacles; cited from earlier work
[4] = stirring
Description: This example investigated the solubility of SELEKTOPE® (I-Tech AB, Mölndal, Sweden) in 1,4-butandiol (Brenntag Nordic AB, Malmö, Sweden). Vials were prepared according to Table 1 and left with stirring.
Vial number 4 was prepared and left with stirring in a same way as vial numbers 1-3.

Cc1cccc(C(C)c2c[nH]cn2)c1C (racemic) [Medetomidine, (±)-4,5-[1-(2,3-dimethylphenyl)ethyl)-1H-imidazole]
effect on other hard fouling, such as tube worms [1]: shown effect | effect on algal growth [2]: no effect on algal growth | concentrations that impede larval settlement [3]: 1 to 10 nM | dissolution in vial number 1 ([4]; 97 mg SELEKTOPE in 1.007 g 1,4-butandiol, after 24 hours): all SELEKTOPE® had dissolved | dissolution in vial number 2 ([4]; 206 mg SELEKTOPE in 1.012 g 1,4-butandiol, 48 hours after preparation): all SELEKTOPE® material had dissolved | dissolution in vial number 4 ([4]; 247 mg SELEKTOPE in 1.009 g 1,4-butandiol, 24 hours after preparation (same at 48 hours)): a few non-dissolved grains remaining | dissolution in vial number 3 ([4]; 303 mg SELEKTOPE in 1.024 g 1,4-butandiol, after about 2 hours (same after 24 and 48 hours)): still a lot of non-dissolved SELEKTOPE®
